Measurements published in ChEMBL document CHEMBL1649226, “Species identification and antifungal susceptibility patterns of species belonging to Aspergillus section Nigri” (2009).
In brackets after ≈: the same amount, converted by molar mass.

Columns and labels:
Assay type in all cases: functional
Aspergillus niger [1] = test: Antifungal activity against Aspergillus niger isolate CM-3641 obtained from respiratory tract infection of patient after 48 hrs by EUCAST broth dilution method; conditions: isolate CM-3641, 48 h
Aspergillus niger [2] = test: Antifungal activity against Aspergillus niger isolate CM-3672 obtained from cutaneous layer of patient after 48 hrs by EUCAST broth dilution method; conditions: isolate CM-3672, 48 h
Aspergillus niger [3] = test: Antifungal activity against Aspergillus niger isolate CM-4004 obtained from after 48 hrs by EUCAST broth dilution method; conditions: isolate CM-4004, 48 h
Aspergillus niger [4] = test: Antifungal activity against Aspergillus niger isolate CM-4213 obtained from respiratory tract infection of patient after 48 hrs by EUCAST broth dilution method; conditions: isolate CM-4213, 48 h
Aspergillus tubingensis [5] = test: Antifungal activity against Aspergillus tubingensis isolate CM-4264 obtained from blood culture after 48 hrs by EUCAST broth dilution method; conditions: isolate CM-4264, 48 h
Aspergillus tubingensis [6] = test: Antifungal activity against Aspergillus tubingensis isolate CM-4296 obtained from respiratory tract infection of patient after 48 hrs by EUCAST broth dilution method; conditions: isolate CM-4296, 48 h
Aspergillus niger [7] = test: Antifungal activity against Aspergillus niger isolate CM-4316 obtained from respiratory tract infection of patient after 48 hrs by EUCAST broth dilution method; conditions: isolate CM-4316, 48 h
Aspergillus tubingensis [8] = test: Antifungal activity against Aspergillus tubingensis isolate CM-5094 obtained from respiratory tract infection of patient after 48 hrs by EUCAST broth dilution method; conditions: isolate CM-5094, 48 h
Aspergillus niger [9] = test: Antifungal activity against Aspergillus niger isolate CM-5095 obtained from respiratory tract infection of patient after 48 hrs by EUCAST broth dilution method; conditions: isolate CM-5095, 48 h
Aspergillus tubingensis [10] = test: Antifungal activity against Aspergillus tubingensis isolate CM-3123 obtained from respiratory tract infection of patient after 48 hrs by EUCAST broth dilution method; conditions: isolate CM-3123, 48 h
Aspergillus tubingensis [11] = test: Antifungal activity against Aspergillus tubingensis isolate CM-3810 obtained from respiratory tract infection of patient after 48 hrs by EUCAST broth dilution method; conditions: isolate CM-3810, 48 h
Aspergillus tubingensis [12] = test: Antifungal activity against Aspergillus tubingensis isolate CM-4003 after 48 hrs by EUCAST broth dilution method; conditions: isolate CM-4003, 48 h
Aspergillus tubingensis [13] = test: Antifungal activity against Aspergillus tubingensis isolate CM-4005 after 48 hrs by EUCAST broth dilution method; conditions: isolate CM-4005, 48 h
Aspergillus tubingensis [14] = test: Antifungal activity against Aspergillus tubingensis isolate CM-4688 obtained from respiratory tract infection of patient after 48 hrs by EUCAST broth dilution method; conditions: isolate CM-4688, 48 h
Aspergillus foetidus [15] = test: Antifungal activity against Aspergillus foetidus isolate CM-5264 obtained from respiratory tract infection of patient after 48 hrs by EUCAST broth dilution method; conditions: isolate CM-5264, 48 h
Aspergillus tubingensis [16] = test: Antifungal activity against Aspergillus tubingensis isolate CM-3125 obtained from respiratory tract infection of patient after 48 hrs by EUCAST broth dilution method; conditions: isolate CM-3125, 48 h
Aspergillus tubingensis [17] = test: Antifungal activity against Aspergillus tubingensis isolate CM-3177 obtained from respiratory tract infection of patient after 48 hrs by EUCAST broth dilution method; conditions: isolate CM-3177, 48 h
Aspergillus niger [18] = test: Antifungal activity against Aspergillus niger isolate CM-3551 obtained from respiratory tract infection of patient after 48 hrs by EUCAST broth dilution method; conditions: isolate CM-3551, 48 h
Aspergillus tubingensis [19] = test: Antifungal activity against Aspergillus tubingensis isolate CM-3654 obtained from blood culture after 48 hrs by EUCAST broth dilution method; conditions: isolate CM-3654, 48 h
Aspergillus tubingensis [20] = test: Antifungal activity against Aspergillus tubingensis isolate CM-4000 after 48 hrs by EUCAST broth dilution method; conditions: isolate CM-4000, 48 h
Aspergillus tubingensis [21] = test: Antifungal activity against Aspergillus tubingensis isolate CM-4001 after 48 hrs by EUCAST broth dilution method; conditions: isolate CM-4001, 48 h
Aspergillus foetidus [22] = test: Antifungal activity against Aspergillus foetidus isolate CM-4002 after 48 hrs by EUCAST broth dilution method; conditions: isolate CM-4002, 48 h
Aspergillus niger [23] = test: Antifungal activity against Aspergillus niger isolate CM-4262 after 48 hrs by EUCAST broth dilution method Ophthalmic; conditions: isolate CM-4262, 48 h
Aspergillus tubingensis [24] = test: Antifungal activity against Aspergillus tubingensis isolate CM-4352 obtained from respiratory tract infection of patient after 48 hrs by EUCAST broth dilution method; conditions: isolate CM-4352, 48 h
Aspergillus tubingensis [25] = test: Antifungal activity against Aspergillus tubingensis isolate CM-4897 obtained from blood culture after 48 hrs by EUCAST broth dilution method; conditions: isolate CM-4897, 48 h
Aspergillus tubingensis [26] = test: Antifungal activity against Aspergillus tubingensis isolate CM-4899 obtained from respiratory tract infection of patient after 48 hrs by EUCAST broth dilution method; conditions: isolate CM-4899, 48 h
Aspergillus foetidus [27] = test: Antifungal activity against Aspergillus foetidus isolate CM-4995 obtained from prosthesis after 48 hrs by EUCAST broth dilution method; conditions: isolate CM-4995, 48 h
Aspergillus niger [28] = test: Antifungal activity against Aspergillus niger isolate CM-3236 obtained from respiratory tract infection of patient after 48 hrs by EUCAST broth dilution method; conditions: isolate CM-3236, 48 h
Aspergillus niger [29] = test: Antifungal activity against Aspergillus niger isolate CM-3257 obtained from respiratory tract infection of patient after 48 hrs by EUCAST broth dilution method; conditions: isolate CM-3257, 48 h
Aspergillus niger [30] = test: Antifungal activity against Aspergillus niger isolate CM-3506 obtained from respiratory tract infection of patient after 48 hrs by EUCAST broth dilution method; conditions: isolate CM-3506, 48 h
Aspergillus tubingensis [31] = test: Antifungal activity against Aspergillus tubingensis isolate CM-3507 obtained from respiratory tract infection of patient after 48 hrs by EUCAST broth dilution method; conditions: isolate CM-3507, 48 h
Aspergillus tubingensis [32] = test: Antifungal activity against Aspergillus tubingensis isolate CM-3585 after 48 hrs by EUCAST broth dilution method; conditions: isolate CM-3585, 48 h
Aspergillus niger [33] = test: Antifungal activity against Aspergillus niger isolate CM-3586 obtained from catheter of patient after 48 hrs by EUCAST broth dilution method; conditions: isolate CM-3586, 48 h
Aspergillus niger [34] = test: Antifungal activity against Aspergillus niger isolate CM-3636 obtained from respiratory tract infection of patient after 48 hrs by EUCAST broth dilution method; conditions: isolate CM-3636, 48 h

SMILES | MIC (Aspergillus niger [1]) | MIC (Aspergillus niger [2]) | MIC (Aspergillus niger [3]) | MIC (Aspergillus niger [4]) | MIC (Aspergillus tubingensis [5]) | MIC (Aspergillus tubingensis [6]) | MIC (Aspergillus niger [7]) | MIC (Aspergillus tubingensis [8]) | MIC (Aspergillus niger [9]) | MIC (Aspergillus tubingensis [10]) | MIC (Aspergillus tubingensis [11]) | MIC (Aspergillus tubingensis [12]) | MIC (Aspergillus tubingensis [13]) | MIC (Aspergillus tubingensis [14]) | MIC (Aspergillus foetidus [15]) | MIC (Aspergillus tubingensis [16]) | MIC (Aspergillus tubingensis [17]) | MIC (Aspergillus niger [18]) | MIC (Aspergillus tubingensis [19]) | MIC (Aspergillus tubingensis [20]) | further results
CN(C/C=C/C#CC(C)(C)C)Cc1cccc2ccccc12 [TERBINAFINE] | 0.25 µg/mL (≈ 0.858 µM) | 0.07 µg/mL (≈ 0.24 µM) | 0.13 µg/mL (≈ 0.446 µM) | 0.22 µg/mL (≈ 0.755 µM) | 0.5 µg/mL (≈ 1.72 µM) | 0.62 µg/mL (≈ 2.13 µM) | 0.5 µg/mL (≈ 1.72 µM) | 0.62 µg/mL (≈ 2.13 µM) | 0.62 µg/mL (≈ 2.13 µM) | 1.17 µg/mL (≈ 4.01 µM) | 1 µg/mL (≈ 3.43 µM) | 1 µg/mL (≈ 3.43 µM) | 0.25 µg/mL (≈ 0.858 µM) | 1.5 µg/mL (≈ 5.15 µM) | 0.5 µg/mL (≈ 1.72 µM) | 0.5 µg/mL (≈ 1.72 µM) | 0.67 µg/mL (≈ 2.3 µM) | 0.25 µg/mL (≈ 0.858 µM) | 0.63 µg/mL (≈ 2.16 µM) | 0.33 µg/mL (≈ 1.13 µM) | MIC (Aspergillus tubingensis [21]): 0.56 µg/mL (≈ 1.92 µM); MIC (Aspergillus foetidus [22]): 0.33 µg/mL (≈ 1.13 µM); MIC (Aspergillus niger [23]): 0.29 µg/mL (≈ 0.995 µM); MIC (Aspergillus tubingensis [24]): 0.31 µg/mL (≈ 1.06 µM); MIC (Aspergillus tubingensis [25]): 0.42 µg/mL (≈ 1.44 µM); MIC (Aspergillus tubingensis [26]): 0.33 µg/mL (≈ 1.13 µM); MIC (Aspergillus foetidus [27]): 0.33 µg/mL (≈ 1.13 µM); MIC (Aspergillus niger [28]): 1 µg/mL (≈ 3.43 µM); MIC (Aspergillus niger [29]): 1 µg/mL (≈ 3.43 µM); MIC (Aspergillus niger [30]): 0.31 µg/mL (≈ 1.06 µM); MIC (Aspergillus tubingensis [31]): 0.62 µg/mL (≈ 2.13 µM); MIC (Aspergillus tubingensis [32]): 0.42 µg/mL (≈ 1.44 µM); MIC (Aspergillus niger [33]): 0.12 µg/mL (≈ 0.412 µM); MIC (Aspergillus niger [34]): 1 µg/mL (≈ 3.43 µM)
C[C@@H](c1ncncc1F)[C@](O)(Cn1cncn1)c1ccc(F)cc1F [VORICONAZOLE] | 1 µg/mL (≈ 2.86 µM) | 1 µg/mL (≈ 2.86 µM) | 1 µg/mL (≈ 2.86 µM) | 0.33 µg/mL (≈ 0.945 µM) | 1 µg/mL (≈ 2.86 µM) | 1 µg/mL (≈ 2.86 µM) | 0.5 µg/mL (≈ 1.43 µM) | 0.75 µg/mL (≈ 2.15 µM) | 0.75 µg/mL (≈ 2.15 µM) | 1.67 µg/mL (≈ 4.78 µM) | 2 µg/mL (≈ 5.73 µM) | 2 µg/mL (≈ 5.73 µM) | 2 µg/mL (≈ 5.73 µM) | 2 µg/mL (≈ 5.73 µM) | 2 µg/mL (≈ 5.73 µM) | 1 µg/mL (≈ 2.86 µM) | 2 µg/mL (≈ 5.73 µM) | 1 µg/mL (≈ 2.86 µM) | 2 µg/mL (≈ 5.73 µM) | 2 µg/mL (≈ 5.73 µM) | MIC (Aspergillus tubingensis [21]): 1.75 µg/mL (≈ 5.01 µM); MIC (Aspergillus foetidus [22]): 2 µg/mL (≈ 5.73 µM); MIC (Aspergillus niger [23]): 2 µg/mL (≈ 5.73 µM); MIC (Aspergillus tubingensis [24]): 0.88 µg/mL (≈ 2.52 µM); MIC (Aspergillus tubingensis [25]): 2 µg/mL (≈ 5.73 µM); MIC (Aspergillus tubingensis [26]): 2 µg/mL (≈ 5.73 µM); MIC (Aspergillus foetidus [27]): 2 µg/mL (≈ 5.73 µM); MIC (Aspergillus niger [28]): 0.5 µg/mL (≈ 1.43 µM); MIC (Aspergillus niger [29]): 1 µg/mL (≈ 2.86 µM); MIC (Aspergillus niger [30]): 0.75 µg/mL (≈ 2.15 µM); MIC (Aspergillus tubingensis [31]): 1 µg/mL (≈ 2.86 µM); MIC (Aspergillus tubingensis [32]): 1 µg/mL (≈ 2.86 µM); MIC (Aspergillus niger [33]): 1 µg/mL (≈ 2.86 µM); MIC (Aspergillus niger [34]): 0.5 µg/mL (≈ 1.43 µM)
